Measured values as given in ChEMBL document CHEMBL4334512, “Rationally Designed, Conformationally Constrained Inverse Agonists of RORγt-Identification of a Potent, Selective Series with Biologic-Like in Vivo Efficacy” (J Med Chem, 2019).

Molecular target: T1, Cytochrome P450 2C8 (Homo sapiens, UniProt P10632)
T1 sequence (P10632 whole entry): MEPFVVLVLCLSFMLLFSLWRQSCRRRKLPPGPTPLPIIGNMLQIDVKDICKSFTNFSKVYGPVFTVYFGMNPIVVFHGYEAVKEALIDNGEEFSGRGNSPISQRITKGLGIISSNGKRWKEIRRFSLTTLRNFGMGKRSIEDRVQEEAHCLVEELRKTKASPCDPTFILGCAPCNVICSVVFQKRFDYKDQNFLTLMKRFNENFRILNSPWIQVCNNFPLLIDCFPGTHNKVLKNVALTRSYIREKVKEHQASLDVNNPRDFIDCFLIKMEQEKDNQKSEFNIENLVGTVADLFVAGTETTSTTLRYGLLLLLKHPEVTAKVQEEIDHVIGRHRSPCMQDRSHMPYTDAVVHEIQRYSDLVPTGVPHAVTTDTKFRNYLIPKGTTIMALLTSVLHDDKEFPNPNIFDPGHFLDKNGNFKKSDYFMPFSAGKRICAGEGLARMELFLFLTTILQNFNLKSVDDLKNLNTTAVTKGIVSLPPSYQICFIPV
Assay: Inhibition of recombinant CYP2C8 (unknown origin)
Assay type: ADME

IC50: 15 µM
Structure (SMILES): O=C(N1CC[C@@]2(S(=O)(=O)c3ccc(F)cc3)c3ccc(C(F)(C(F)(F)F)C(F)(F)F)cc3CC[C@@H]12)C1(O)CCS(=O)(=O)CC1
